Data from patent publication US12692477B2, “Medium composition for culturing porcine pluripotent stem cells” (SPACE F CORP., priority 2018, dated 2026).

How the values were obtained:
[1] = test system: porcine pluripotent stem cells; assay: Influence of growth factor concentration in porcine pluripotent stem cell culture medium; type: cell-based; settings: for Optimal concentration / optimal concentration: in culture medium
Protocol: The influence of a growth factor concentration in a porcine pluripotent stem cell culture medium established in the above-described example was analyzed, and the results are shown in Table 10. When the concentration of growth factors was low, the growth of stem cells was reduced, and when the concentration of growth factor was high, except for bFGF, cells were killed. The allowable concentration of the bFGF was 3.03×10^−4 to 6.06×10^−3 μM, and the optimal concentration was 1.21×10^−3 μM. The allowable concentration of the Activin A was 1.50×10^−4 to 5.40×10^−4 μM, and the optimal concentration was 3.85×10^−4 μM. The allowable concentration of the CHIR99021 was 0.5 to 2.50 μM, and the optimal concentration was 1.50 μM. The allowable concentration of the IWR-1 was 1.20 to 3.00 μM, and the optimal concentration was 2.50 μM.

[2] = test system: porcine blastocysts (inner cell mass); assay: Culture of porcine blastocysts on feeder cells with signal molecule combinations in serum replacement medium; type: cell-based
Protocol: First, a culture medium including KSR, N2/B27, KSR+N2/B27, or KSR+LC was used to find a serum replacement suitable for the growth of porcine embryos. […] As a result, it was confirmed that the inner cell mass expressing SOX2 rapidly grew in the group treated with KSR and KSR+LC (FIG. 1). Second, for long-term culturing of the inner cell mass, signal molecules were treated in various combinations (Table 6 and Table 7).
The culturing was attempted by adding signal molecules to basal medium including KSR or KSR+LC. Porcine embryonic stein cells were established in a culture medium including FGF2, A, and 6-[[2-[[4-(2,4-Dichlorophenyl)-5-(5-methyl-1H-imidazol-2-yl)-2-pyrimidinyl]amino]ethyl]amino]-3-pyridinecarbonitrile (CHIR99021) in a culture solution including serum replacement 4 (Tables 6 and 7, FIG. 2). In addition, for the stabilization of CHIR99021, 4-(1,3,3a,4,7,7a-Hexahydro-1,3-dioxo-4,7-methano-2H-isoindol-2-yl)-N-8-quinolinyl-Benzamide (IWR-1) was added to establish the composition for long-term culturing and maintenance of porcine embryonic stem cells, as shown in Table 8 and Table 9, respectively.

Which results are given for `Cc1cnc(-c2cnc(NCCNc3ccc(C#N)cn3)nc2-c2ccc(Cl)cc2Cl)[nH]1` [CHIR99021, 6-[[2-[[4-(2,4-Dichlorophenyl)-5-(5-methyl-1H-imidazol-2-yl)-2-pyrimidinyl]amino]ethyl]amino]-3-pyridinecarbonitrile, reference compound]?
Optimal concentration [1]: 0.0015 mM; optimal concentration [1]: 1.50 µM

`O=C(Nc1cccc2cccnc12)c1ccc(N2C(=O)C3C4C=CC(C4)C3C2=O)cc1` (stereo not drawn) [IWR-1, 4-(1,3,3a,4,7,7a-Hexahydro-1,3-dioxo-4,7-methano-2H-isoindol-2-yl)-N-8-quinolinyl-Benzamide, reference compound] was tested. Which “Optimal concentration” value [1] did it give?
The value was 0.0025 mM.

What about the optimal concentration [1] of the same molecule?
Its optimal concentration is 2.50 µM.

For “bFGF: basic fibroblast growth factor, signal molecule in the culture medium”, which “Blastocyst initial growth rate (%)” value ([2]; serum replacement 1) is on record?
The value was 30.0 ± 5.8%.

And the “Sox2 positive rate of the initial population (%)” value ([2]; serum replacement 1)?
Its value is 30.0 ± 5.8%.

What about the “Number of embryonic stem cell lines established in the long-term culture” value ([2]; serum replacement 1, 30 blastocysts) of the same molecule?
The value was 0.

And the “Blastocyst initial growth rate (%)” value ([2]; serum replacement 4)?
Its value is 51.5 ± 4.6%.

And the “Sox2 positive rate of the initial population (%)” value ([2]; serum replacement 4)?
The value was 44.8 ± 2.9%.

What about the “Number of embryonic stem cell lines established in the long-term culture” value ([2]; serum replacement 4, 29 blastocysts) of the same molecule?
Its value is 0.

And the “Optimal concentration” value [1]?
The value was 1.21e-06 mM.

And the optimal concentration [1]?
The optimal concentration was 0.00121 µM.

B1: activin A: activin A, signal molecule acting through the SMAD signal transduction system (protein, UniProt P08476 311-426, looked up)
Inhibin beta A chain: GLECDGKVNICCKKQFFVSFKDIGWNDWIIAPSGYHANYCEGECPSHIAGTSGSSLSFHSTVINHYRMRGHSPFANLKSCCVPTKLRPMSMLYYDDGQNIIKKDIQNMIVEECGCS
With B1 as the molecule, how does the “Symptoms when exceeding the appropriate concentration” value [1] read?
The value was “Cell death”.

What about the “Optimal concentration” value [1] of the same molecule?
The value was 3.85e-07 mM.

And the optimal concentration [1]?
Its optimal concentration is 0.000385 µM.
